Columns and labels:
Type in all cases: functional
Mus musculus [1] = assay: Total number of entries into the open and closed arms of the maze for anxiolytic activity in ICR mouse through elevated plus test after intraperitoneal injection of 15 mg/kg
Mus musculus [2] = assay: Number of entries into the closed arms of the maze for anxiolytic activity in ICR mouse through elevated plus test after intraperitoneal injection of 15 mg/kg
Mus musculus [3] = assay: Percentage number of entries into the open arms of the maze for anxiolytic activity in ICR mouse through elevated plus test after intraperitoneal injection of 15 mg/kg
Mus musculus [4] = assay: Time spent into the open arms of the maze for anxiolytic activity in ICR mouse through elevated plus maze test after intraperitoneal injection of 15 mg/kg
Mus musculus [5] = assay: Number of entries into the open arms of the maze for anxiolytic activity in ICR mouse through elevated plus maze test after intraperitoneal injection of 15 mg/kg

| SMILES | Total number of entries (Mus musculus [1]) | No. of entries (Mus musculus [2]) | No. of entries (Mus musculus [3]) | Spent time (Mus musculus [4]) | No. of entries (Mus musculus [5]) |
| --- | --- | --- | --- | --- | --- |
| CSc1ccc(/C=C2\OC(=O)c3ccccc32)cc1 | 17.7 | 9.9 | 49.5% | 0.0363 h | 7.9 |
| COc1ccc(/C=C2\OC(=O)c3ccccc32)cc1 | 20.1 | 7.1 | 64.1% | 0.0493 h | 13 |
| CCCCCCCCCCCC(=O)OCCOCC(OCCO)C1OCC(OCCO)C1OCCO (stereo not given) | 18.5 | 8.9 | 51.2% | 0.034 h | 9.6 |
| C=C(C)[C@@H]1[C@H]2OC(=O)[C@@H]1[C@]1(O)C[C@H]3OC34C(=O)O[C@H]2[C@@]41C.CC(C)(O)[C@@H]1[C@H]2OC(=O)[C@@H]1[C@]1(O)C[C@H]3OC34C(=O)O[C@H]2[C@@]41C (stereo not given in full) [PICROTOXIN] | 11.8 | 9.4 | 19% | 0.00739 h | 2.5 |
| O=C1O/C(=C\c2ccc3c(c2)OCO3)c2ccccc21 | 20.2 | 9 | 54.4% | 0.0418 h | 11.2 |
| COc1cc(/C=C2\OC(=O)c3ccccc32)cc(OC)c1OC | 17.3 | 9 | 44.8% | 0.0296 h | 8.3 |
| C[S+]([O-])c1ccc(/C=C2\OC(=O)c3ccccc32)cc1 (stereo not given) | 19.8 | 9 | 55.6% | 0.0427 h | 10.8 |
| O=C1O/C(=C\c2ccc([N+](=O)[O-])cc2)c2ccccc21 | 16.3 | 7.3 | 57.2% | 0.0441 h | 9 |
| COc1ccc(/C=C2\OC(=O)c3ccc(C(N)=O)cc32)cc1 | 24 | 11.5 | 50.2% | 0.0348 h | 13 |
| CS(=O)(=O)c1ccc(/C=C2\OC(=O)c3ccccc32)cc1 | 16.4 | 5.6 | 69.9% | 0.052 h | 10.6 |
| CN1C(=O)CN=C(c2ccccc2)c2cc(Cl)ccc21 [DIAZEPAM] | 19.5 | 3.7 | 82% | 0.064 h | 15.8 |
| COc1ccc(/C=C2\OC(=O)c3cc([N+](=O)[O-])c([N+](=O)[O-])cc32)cc1 | 22.2 | 10.5 | 51.7% | 0.0359 h | 11.7 |
| O=C1O/C(=C\c2ccc(Cl)cc2)c2ccccc21 | 16.5 | 8.5 | 55.8% | 0.0444 h | 8 |

Source: ChEMBL document CHEMBL1140364, “Anxiolytic effects of benzalphthalides” (2005)
